Experimental findings from patent US20190364896A1, “SYNERGISTIC WEED CONTROL FROM APPLICATIONS OF PYRIDINE CARBOXYLIC ACID HERBICIDES AND ALS INHIBITORS” (Dow AgroSciences LLC, priority 2014, published 2019) are described below.

Common to all, as to assay: Postemergence herbicidal activity, greenhouse trial (visual injury 0-100%)
Holding throughout (format): in vivo

The subject of assay [1] is velvetleaf (Abutilon theophrasti, ABUTH).
The test system of assay [2] is kochia (Kochia scoparia, KCHSC). The note with it: Bassia scoparia, post-emergence, read-out: % visual injury Obs. In short, it runs like this:
(§1)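 Read-out is a visual 0–100% injury score against solvent-blank-sprayed controls, taken 20-22 d after treatment; expected mixture effects came from Colby's equation. Two-way combinations in 1.5% v/v crop oil concentrate were sprayed at 187 L/ha onto plants at the second or third true leaf stage.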

Assay [3] deals with thistle (Cirsium arvense, CIRAR). In outline: as §1
The subject of assay [4] is wild buckwheat (Polygonum convolvulus, POLCO). The following applies: Fallopia convolvulus, post-emergence, read-out: % visual injury Obs. In outline: as §1
Assay [5] has as its system wild pansy (Viola tricolor, VIOTR). The following applies: Viola tricolor, post-emergence, read-out: % visual injury Obs. In outline:
as §1

For assay [6], the system named is grain sorghum (Sorghum vulgare, SORVU). In short, it runs like this:
as §1

In assay [7] the test system is blackgrass (Alopecurus myosuroides, ALOMY). In short, it runs like this: as §1

Values joined by “and” are separate entries in the source; they are usually repeats but may differ in a detail not shown here. Equal values may be shown once. Read-outs that look alike come from different tables or passages of the source.

With `Nc1c(F)c(-c2ccc3cc[nH]c3c2F)nc(C(=O)O)c1Cl` [Compound 1], the “% visual injury Obs” value is 50% and 70% in assay [1] (5 g ae/ha); 60% in assay [1] (10 g ae/ha); 70% in assay [1] (ABUTH, Compound 1 5 g ae/ha); 10% in assay [3] (CIRAR, Compound 1 5 g ae/ha); 10% and 0% in assay [6] (5 g ae/ha); 50% in assay [6] (10 g ae/ha). The “% visual injury Obs” value was 0% and 10% in assay [6] (SORVU, Compound 1 5 g ae/ha); 50% in assay [6] (SORVU, Compound 1 10 g ae/ha); 0% in assay [7] (5 g ae/ha); 0% in assay [7] (10 g ae/ha); 0% in assay [7] (ALOMY, Compound 1 5 g ae/ha); 0% in assay [7] (ALOMY, Compound 1 10 g ae/ha). In addition, the pest or weed control at 5 g/ha in assay [2] (5 g ae/ha) is 65%; in assay [2] (KCHSC, Compound 1 5 g ae/ha) it was 60%; in assay [3] (Cirsium arvense, post-emergence, 5 g ae/ha, read-out: % visual injury Obs), 10%; in assay [4] (5 g ae/ha), 70%; in assay [4] (POLCO, Compound 1 5 g ae/ha), 65%. Moreover, the pest or weed control at 10 g/ha is 60% in assay [2] (10 g ae/ha); 60% in assay [2] (KCHSC, Compound 1 10 g ae/ha); 10% in assay [5] (10 g ae/ha); 10% in assay [5] (VIOTR, Compound 1 10 g ae/ha).

Consider `CCCOc1nn(C(=O)NS(=O)(=O)c2ccccc2C(=O)OC)c(=O)n1C` [Propoxycarbazone, propoxycarbazone], for which the “% visual injury Obs” value in assay [1] (7.5 g ai/ha) was determined as 50%. Also, the pest or weed control at […] in assay [2] (7.5 g ai/ha) was 30%; in assay [3] (Cirsium arvense, post-emergence, 7.5 g ai/ha, read-out: % visual injury Obs) it was 75%; in assay [4] (7.5 g ai/ha) it was 10%; in assay [5] (7.5 g ai/ha) it was 20%.
